The values below come from US12570648B2, “6,7-dihydro-5H-pyrido[2,3-c]pyridazine derivatives and related compounds as Bcl-xL protein inhibitors and pro-apoptotic agents for treating cancer” (LES LABORATOIRES SERVIER, priority 2019, dated 2026).

Each structure is given as a SMILES string.

One assay deals with MOLT-4 cells. The assay is described as follows: MOLT-4 cell viability using MTT assay. The conditions noted are these: Homo sapiens, MOLT-4, 48 h, 48 h exposure. Format: cell-based. As for the experimental part:
MTT colorimetric assay is based on the mitochondrial reduction of tetrazolium salt by living cells.
Cells were cultured at 37° C. in a humidified atmosphere containing 5% CO2. […] At the end of incubation time, 15 μL of MTT solution (5 mg/ml) were added per well and the cells were incubated for another 4 h. […] IC50s were calculated using standard four-parametric curve fitting.

For assay [1], the target named is His-His-(EK)-hsBCLXL(2-197)[N197C] (Homo sapiens (Human), UniProt Q07817, N197C). Put plainly: Fluorescence quenching assay. Format: binding. The note with it: 1 nM Cy5-labelled protein, 400 nM PUMA peptide, 2 hours at 23° C.; KI determined from IC50. In outline:
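Ki values converted from IC50s, measured as fluorescence increase (Ex 620/Em 680 nm) after 2 h at 23° C. Compounds were titrated over 11 points against 1 nM Cy5-BCL-xL and 400 nM quencher-tagged PUMA peptide in pH 7.4 HEPES (10 mM), 150 mM NaCl, 0.05% Tween 20, 5% DMSO.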

A further assay relates to H146 cells. Put plainly: H146 cell viability using MTT assay. Format: cell-based. The conditions noted are these: Homo sapiens, NCI-H146, 48 h exposure. The procedure:
MTT colorimetric assay is based on the mitochondrial reduction of tetrazolium salt by living cells. The viable cell number is proportional to the production of formazan salts, which can be read spectrophotometrically at 540 nm.
MOLT-4 and H146 cells were purchased from ATCC and cultivated in RPMI 1640 supplemented with 10% heat inactivated fetal bovine serum, penicillin (100 IU/ml), streptomycin (100 μg/ml) and L-glutamine (2 mM). Cells were cultured at 37° C. in a humidified atmosphere containing 5% CO2. Cells were seeded in 96 microwell plates (150p per well) and exposed to the compounds for 48 h (3.16 fold serially diluted; 9 concentrations each, triplicates). At the end of incubation time, 15 μL of MTT solution (5 mg/ml) were added per well and the cells were incubated for another 4 h. Then, 100 μL of 10% Sodium Dodecyl Sulfate (SDS)/HCl 10 mM were added per well and the plate was incubated overnight, before measurement of optical density at 540 nm. IC50s were calculated using standard four-parametric curve fitting.
(Tetrazolium dyes change colour on reduction, which living cells bring about.)

Chain of His-His-(EK)-hsBCLXL(2-197)[N197C] (Q07817 2-197 N197C): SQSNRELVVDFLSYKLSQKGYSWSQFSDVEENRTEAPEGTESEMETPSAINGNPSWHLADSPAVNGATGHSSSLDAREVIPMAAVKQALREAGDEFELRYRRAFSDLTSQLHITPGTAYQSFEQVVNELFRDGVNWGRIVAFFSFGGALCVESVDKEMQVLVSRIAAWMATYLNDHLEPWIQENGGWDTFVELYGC

What is called IC50 is the point on the concentration scale where inhibition reaches its midpoint. Read a high IC50 as weaker potency in that assay. In general, Ki refers to a measure of affinity in units of concentration, obtained from inhibition or displacement. Consider `Cc1c(Nc2nc3ccccc3s2)nnc2c1CCCN2c1nc(C(=O)O)c(CCCOc2ccc(C#CCNCC[N+](C)(C)CCCS(=O)(=O)[O-])cc2F)s1` [Example 54, 3-[2-[3-[4-[3-[2-[3-(1,3-Benzothiazol-2-ylamino)-4-methyl-6,7-dihydro-5H-pyrido[2,3-c]pyridazin-8-yl]-4-carboxy-thiazol-5-yl]propoxy]-3-fluoro-phenyl]prop-2-ynylamino]ethyl-dimethyl-ammonio]propane-1-sulfonate], for which the figures for the 50% inhibitory concentration (IC50) with MOLT-4 cells and in the assay with H146 cells were 47.2 nM and 595 nM, respectively. Moreover, the Ki in assay [1] worked out at 0.0012 nM.

As to `Cc1c(Nc2nc3ccccc3s2)nnc2c1CCCN2c1nc(C(=O)O)c(CCCOc2ccc(CCCN3CCC3)cc2F)s1` [Example 67, 5-[3-[4-[3-(Azetidin-1-yl)propyl]-2-fluoro-phenoxy]propyl]-2-[3-(1,3-benzothiazol-2-ylamino)-4-methyl-6,7-dihydro-5H-pyrido[2,3-c]pyridazin-8-yl]thiazole-4-carboxylic acid], the IC50 with MOLT-4 cells worked out at 7.4 nM; with H146 cells, 14.6 nM. In assay [1], the inhibitory constant (Ki) stood at 0.0032 nM.

As for `Cc1c(Nc2nc3ccccc3s2)nnc2c1CCCN2c1nc(C(=O)O)c(CCCOc2ccc(C#CCN3CCCC(F)(F)C3)cc2F)s1` [Example 50, 2-{3-[(1,3-Benzothiazol-2-yl)amino]-4-methyl-5H,6H,7H,8H-pyrido[2,3-c]pyridazin-8-yl}-5-(3-{4-[3-(3,3-difluoropiperidin-1-yl)prop-1-yn-1-yl]-2-fluorophenoxy}propyl)-1,3-thiazole-4-carboxylic acid], the values for the IC50 in the assay on MOLT-4 cells and with H146 cells were 3.71 nM and 87.7 nM, respectively. For the same compound, the Ki in assay [1] turned out to be 0.071 nM.

Take `Cc1c(Nc2nc3ccccc3s2)nnc2c1CCCN2c1nc(C(=O)O)c(CCCOc2ccc(C#CCN3CCC3)cc2F)s1` [Example 45, 5-(3-{4-[3-(Azetidin-1-yl)prop-1-yn-1-yl]-2-fluorophenoxy}propyl)-2-{3-[(1,3-benzothiazol-2-yl)amino]-4-methyl-5H,6H,7H,8H-pyrido[2,3-c]pyridazin-8-yl}-1,3-thiazole-4-carboxylic acid]: the half-maximal inhibitory concentration (IC50) with MOLT-4 cells was found to be 0.551 nM; in the assay with H146 cells it was 10.6 nM. Besides, the inhibition constant Ki in assay [1] was 0.0049 nM.

Turning to `Cc1c(Nc2nc3ccccc3s2)nnc2c1CCCN2c1nc(C(=O)O)c(CCCOc2ccc(C#CC(C)N3CCCC3)cc2F)s1` (stereo not drawn) [Example 43, 2-[3-(1,3-Benzothiazol-2-ylamino)-4-methyl-6,7-dihydro-5H-pyrido[2,3-c]pyridazin-8-yl]-5-[3-[2-fluoro-4-(3-pyrrolidin-1-ylbut-1-ynyl)phenoxy]propyl]thiazole-4-carboxylic acid], the half-inhibitory concentration (IC50) is 1.71 nM in the assay on MOLT-4 cells and 11.7 nM in the assay with H146 cells. In assay [1], the Ki was determined as 0.0031 nM.

As to `Cc1c(Nc2nc3ccccc3s2)nnc2c1CCCN2c1nc(C(=O)O)c(CCCOc2ccc(C#CCN(C)C)cc2Br)s1` [Example 59, 2-{3-[(1,3-Benzothiazol-2-yl)amino]-4-methyl-5H,6H,7H,8H-pyrido[2,3-c]pyridazin-8-yl}-5-(3-{2-bromo-4-[3-(dimethylamino)prop-1-yn-1-yl]phenoxy}propyl)-1,3-thiazole-4-carboxylic acid], the half-maximal inhibitory concentration (IC50) was found to be 3.36 nM with MOLT-4 cells and 17.3 nM in the assay with H146 cells. For the same compound, the inhibition constant (Ki) in assay [1] was 0.023 nM.

With `Cc1c(Nc2nc3ccccc3s2)nnc2c1CCCN2c1nc(C(=O)O)c(CCCOc2cc3c(cc2F)c(CN(C)C)cn3C)s1` [Example 61, 2-{3-[(1,3-Benzothiazol-2-yl)amino]-4-methyl-5H,6H,7H,8H-pyrido[2,3-c]pyridazin-8-yl}-5-[3-({3-[(dimethylamino)methyl]-5-fluoro-1-methyl-1H-indol-6-yl}oxy)propyl]-1,3-thiazole-4-carboxylic acid], the values for the half-inhibitory concentration (IC50) in the assay with MOLT-4 cells and in the assay on H146 cells were 122 nM and 120 nM, respectively. The Ki in assay [1] was determined as 0.033 nM.

As to `Cc1c(Nc2nc3ccccc3s2)nnc2c1CCCN2c1nc(C(=O)O)c(CCCOc2ccc(CCN(C)C)cc2F)s1` [Example 53, 2-{3-[(1,3-Benzothiazol-2-yl)amino]-4-methyl-5H,6H,7H,8H-pyrido[2,3-c]pyridazin-8-yl}-5-(3-{4-[2-(dimethylamino)ethyl]-2-fluorophenoxy}propyl)-1,3-thiazole-4-carboxylic acid], the IC50 in the assay with MOLT-4 cells amounted to 9.74 nM; in the assay with H146 cells it was 14.9 nM. For the same compound, the Ki in assay [1] was 0.0066 nM.

Regarding `Cc1c(Nc2nc3ccccc3s2)nnc2c1CCCN2c1nc(C(=O)O)c(CCCOc2ccc(N3CCN(C)CC3)cc2F)s1` [Example 60, 2-{3-[(1,3-Benzothiazol-2-yl)amino]-4-methyl-5H,6H,7H,8H-pyrido[2,3-c]pyridazin-8-yl}-5-{3-[2-fluoro-4-(4-methylpiperazin-1-yl)phenoxy]propyl}-1,3-thiazole-4-carboxylic acid], the IC50 came out at 2.75 nM in the assay on MOLT-4 cells and 8.86 nM in the assay with H146 cells. In addition, the Ki in assay [1] turned out to be 0.0089 nM.

`Cc1c(Nc2nc3ccccc3s2)nnc2c1CCCN2c1nc(C(=O)O)c(CCCOc2ccc(C#CCN3CCCC(O)C3)cc2F)s1` (stereo not drawn) [Example 55, 2-[3-(1,3-Benzothiazol-2-ylamino)-4-methyl-6,7-dihydro-5H-pyrido[2,3-c]pyridazin-8-yl]-5-[3-[2-fluoro-4-[3-(3-hydroxy-1-piperidyl)prop-1-ynyl]phenoxy]propyl]thiazole-4-carboxylic acid]: the half-inhibitory concentration (IC50) was 0.949 nM in the assay with MOLT-4 cells and 5.65 nM in the assay on H146 cells. The Ki in assay [1] was found to be 0.0092 nM.

`Cc1c(Nc2nc3ccccc3s2)nnc2c1CCCN2c1nc(C(=O)O)c(CCCOc2ccc(C#CCN3CCC4(CC3)CNC(=O)C4)cc2F)s1` [Example 58, 2-[3-(1,3-Benzothiazol-2-ylamino)-4-methyl-6,7-dihydro-5H-pyrido[2,3-c]pyridazin-8-yl]-5-[3-[2-fluoro-4-[3-(3-oxo-2,8-diazaspiro[4.5]decan-8-yl)prop-1-ynyl]phenoxy]propyl]thiazole-4-carboxylic acid]: the IC50 turned out to be 0.817 nM in the assay with MOLT-4 cells and 6.65 nM in the assay on H146 cells. The Ki in assay [1] amounted to 0.0048 nM.

Take `Cc1c(Nc2nc3ccccc3s2)nnc2c1CCCN2c1nc(C(=O)O)c(CCCOc2ccc(C#CCN3CCOCC3)cc2F)s1` [Example 47, 2-[3-(1,3-Benzothiazol-2-ylamino)-4-methyl-6,7-dihydro-5H-pyrido[2,3-c]pyridazin-8-yl]-5-[3-[2-fluoro-4-(3-morpholinoprop-1-ynyl)phenoxy]propyl]thiazole-4-carboxylic acid]: the half-maximal inhibitory concentration (IC50) in the assay on MOLT-4 cells came out at 0.957 nM; in the assay with H146 cells, 7.31 nM. For the same compound, the Ki in assay [1] was found to be 0.0089 nM.

With `Cc1c(Nc2nc3ccccc3s2)nnc2c1CCCN2c1nc(C(=O)O)c(CCCOc2cc3c(cc2F)CCN(C)C3)s1` [Example 66, 2-{3-[(1,3-Benzothiazol-2-yl)amino]-4-methyl-5H,6H,7H,8H-pyrido[2,3-c]pyridazin-8-yl}-5-{3-[(6-fluoro-2-methyl-1,2,3,4-tetrahydroisoquinolin-7-yl)oxy]propyl}-1,3-thiazole-4-carboxylic acid], the IC50 was found to be 2.01 nM in the assay with MOLT-4 cells and 8.22 nM with H146 cells. For the same compound, the Ki in assay [1] turned out to be 0.012 nM.

Regarding `CNCC#Cc1ccc(OCCCc2sc(N3CC(O)Cc4c3nnc(Nc3nc5ccccc5s3)c4C)nc2C(=O)O)c(F)c1` (stereo not drawn) [Example 38, 2-[3-(1,3-Benzothiazol-2-ylamino)-6-hydroxy-4-methyl-6,7-dihydro-5H-pyrido[2,3-c]pyridazin-8-yl]-5-[3-[2-fluoro-4-[3-(methylamino)prop-1-ynyl]phenoxy]propyl]thiazole-4-carboxylic acid], the IC50 worked out at 59.4 nM with MOLT-4 cells and 22.1 nM in the assay on H146 cells. In addition, the Ki in assay [1] was determined as 0.0029 nM.

With `Cc1c(Nc2nc3ccccc3s2)nnc2c1CCCN2c1nc(C(=O)O)c(CCCOc2ccc(C#CC(C)N3CCN(C)CC3)cc2F)s1` (stereo not drawn) [Example 41, 2-[3-(1,3-Benzothiazol-2-ylamino)-4-methyl-6,7-dihydro-5H-pyrido[2,3-c]pyridazin-8-yl]-5-[3-[2-fluoro-4-[3-(4-methylpiperazin-1-yl)but-1-ynyl]phenoxy]propyl]thiazole-4-carboxylic acid], the IC50 came out at 0.36 nM with MOLT-4 cells and 3.67 nM in the assay with H146 cells. The Ki in assay [1] is 0.0025 nM.

In the case of `Cc1c(Nc2nc3ccccc3s2)nnc2c1CCCN2c1nc(C(=O)O)c(CCCOc2ccc(CCCN3CCOCC3)cc2F)s1` [Example 70, 2-[3-(1,3-Benzothiazol-2-ylamino)-4-methyl-6,7-dihydro-5H-pyrido[2,3-c]pyridazin-8-yl]-5-[3-[2-fluoro-4-(3-morpholinopropyl)phenoxy]propyl]thiazole-4-carboxylic acid], the IC50 in the assay on MOLT-4 cells was 3.08 nM; in the assay with H146 cells it was 16.9 nM. In assay [1], the inhibition constant Ki worked out at 0.017 nM.
